We go through 1 compound from patent publication US11504349B2, “Composition for preventing or treating TNF-related diseases, containing novel derivative as active ingredient, and method for inhibiting TNF activity by using same” (ILAB, priority 2017, dated 2022).

The inhibition is how much of the control response was suppressed. High values mean a response far below the control, low ones a response near the control. In general, IC50 refers to the concentration that gives 50% inhibition. The low end stands for greater potency in that assay, the high end for weaker potency in that assay. By CC50 is commonly meant the concentration that lowers cell viability or growth by half. A low value points to greater toxicity to the cells. As usually defined, the Kd is the concentration at which binding is half-saturated.

Data set [1] deals with T1, TNF (Homo sapiens, UniProt P01375). In words: TNF-neutralization bioassay: TNF-induced cell death of LM cells (MTT). It is filed as cell-based. The gist of the method:
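Mouse fibroblast LM cells (5×10^4 cells/well) treated with TNF (20 ng/ml), compound and actinomycin D sensitizer for 24 h. Viability by MTT (4 h), absorbance at 570 nm. % TNF inhibition from OD relative to TNF-treated and untreated groups; IC50 and CC50 by Prism.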

A short description of data set [2]: Cytotoxicity (CC50) in LM cells, MTT assay. The data set is classed as cell-based. Conditions: mouse, LM cells (mouse fibroblasts); 50% cytotoxic concentration. The method, then:
First, the addition of recombinant TNF to mouse fibroblast LM cells induces cell death, and thus, by using the same, the TNF-neutralization bioassay was constructed. In other words, LM cells were pretreated with TNF (20 ng/ml) and the compounds synthesized in the above examples at various concentrations (5×10^4 cells/well), and a sensitizer actinomycin D ([…]) was added, and cultured in a CO2 incubator for 24 hours, and then the MTT assay was carried out. At this time, 10 μl of MTT (5 mg/ml stock) was added, reacted for 4 hours, and then dissolved in DMSO to measure the absorbance at 570 nm. First, the TNF cell death inhibition/neutralization action of TNF-target expected compounds at single concentration (50 or 10 μM) was measured. Second, IC50 values were determined by treating with the compounds having an excellent effect at different concentrations. The % inhibition of TNF was calculated using the following formula: % inhibition of TNF=(OD value of a group treated with TNF and compound−OD value of TNF treated group/(OD value of TNF untreated group−OD value of TNF treated group)×100.
IC50 values were statistically analyzed using Prism 6 (GraphPad) (IC50: 50% inhibitory concentration, CC50: 50% cytotoxic concentration).
(Formazan colour is commonly taken as a measure of viable cells.)

The target in data set [3] is T1, TNF. Kind of data set: SPR (Biacore T200) direct binding to immobilized TNF. Conditions: TNF immobilized on CM5 chip, read-out: binding affinity (KD). As for the experimental part: The binding kinetics of TNF and 4-benzopyranone derivative compounds was measured by Surface Plasmon Resonance (SPR) method. First, based on the results of pH scouting (10 mM acetate buffer, pH 4.0, 4.5, 5.0, and 5.5), the appropriate buffer pH was determined, and then the recombinant TNF was immobilized on the CM5 chip (4000-5000 RU). In order to correct an effect of DMSO, a solvent correction standard was then prepared, and DMSO was added to the HBS-EP+ buffer (GE) in an amount of 5%. Then, the 4-benzopyranone derivative compounds were prepared depending on concentration, flowed into the chip (20 μl/min, 500 s), and dissolved (500 s), and the results of sensorgram were analyzed by a dedicated program to determine the affinity value (KD). At this time, the running buffer was HBS-EP+ buffer (GE), the regeneration buffer was 10 mM glycine (pH 2.5), and Biacore T200 (GE) was used as an analyzer.

Data set [4] deals with etanercept (Homo sapiens, UniProt P20333). In words: SPR binding to etanercept. To be noted: FIG. 2c. For orientation: In SPR one partner is held on a chip, and binding of the other changes the refractive index at the surface.
Sequence of etanercept (P20333 with tags, fused parts or gaps limits assumed): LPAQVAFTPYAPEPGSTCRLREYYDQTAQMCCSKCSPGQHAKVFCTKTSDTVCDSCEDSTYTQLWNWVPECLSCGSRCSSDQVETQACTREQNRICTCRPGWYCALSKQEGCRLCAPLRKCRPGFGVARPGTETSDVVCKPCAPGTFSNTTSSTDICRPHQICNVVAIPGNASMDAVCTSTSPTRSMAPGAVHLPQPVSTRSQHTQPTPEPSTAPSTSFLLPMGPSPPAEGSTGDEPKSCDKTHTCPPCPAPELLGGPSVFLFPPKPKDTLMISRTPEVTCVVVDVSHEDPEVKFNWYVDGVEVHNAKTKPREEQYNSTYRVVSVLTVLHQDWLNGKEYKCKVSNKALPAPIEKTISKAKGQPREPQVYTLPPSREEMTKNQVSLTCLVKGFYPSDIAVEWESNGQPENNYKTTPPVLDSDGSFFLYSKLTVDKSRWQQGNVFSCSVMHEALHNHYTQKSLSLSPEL
The test system of data set [5] is NF-kB p65. Kind of data set: Western blot: TNF-induced NF-kB p65 nuclear migration in LM cells. The data set is classed as cell-based, mouse. Conditions: TNF 50 ng/ml, 1 hour, compound at about 25 μM. The method, then:
First, LM cells was treated with TNF alone (50 ng/ml) or a mixture of TNF and the compound of Example 61 (0, 10, 25, 50 μM) for 1 hour, and then the cells were washed and prepared. After the cytoplasmic fraction and nuclear fraction were separated/obtained using NE-PER nuclear and cytoplasmic extraction reagents (Thermo Scientific, cat #78833), NF-kB p65 protein was detected by SDS-PAGE and Western Blot. Anti-NF-κB p65 rabbit monoclonal antibody (Cell Signaling Technology, cat #D14E12) was used as a primary antibody, and goat anti-rabbit HRP-conjugated antibody (Invitrogen, cat #656120) was used as a secondary antibody. As a Western Blot control protein (housekeeping protein), GAPDH was used in the cytoplasmic fraction, and Lamin B1 was used in the nuclear fraction. Anti-GAPDH mouse monoclonal antibody (GenScript, cat #A01622) was used as a primary antibody of GAPDH, and goat anti-mouse HRP-conjugated antibody (BETHYLlaboratories, cat #A90-116P) was used as a secondary antibody. Anti-Lamin-B1 rabbit monoclonal antibody (Cell Signaling Technology, cat #12586S) was used as a primary antibody of Lamin B1, and anti-rabbit HRP-conjugated antibody (Invitrogen, cat #656120) was used as a secondary antibody.

Data set [6] concerns TNF-overexpressing mice. In words: Therapeutic effect on rheumatoid arthritis, TNF-overexpressing mouse model. It is filed as in vivo. The method, then:
First, until the mean level of arthritis of TNF-overexpres sing mice reached 8, the mice were raised. As such, etanercept (4.5 mpk), adalimumab (1.2 mpk), the compound of Example 61 (25 mpk, 50 mpk, or 100 mpk) were orally administered to the mice with rheumatoid arthritis from Week 15 to Week 23, three times a week, and the pathology was measured and recorded from Week 7 to Week 23 (N=5 to 6/group, *P<0.01, **P<0.005, ***P<0.001).

Data set [7] concerns DBA/1 mice. Kind of data set: CIA mouse model, alone and in combination with methotrexate. The data set is classed as in vivo. To be noted: Example 61 10 mpk PO once a day, MTX 5 mpk three times a week, to Day 73. The source says: A 1:1 mixture of collagen type 2 and CFA was intradermally (ID) injected into the base of the tail of DBA/1 mice. Two weeks after the primary immunization, a 1:1 mixture of bovine collagen type 2 and IFA (incomplete Freund's adjuvant) was intradermally (ID) injected into the base of the tail to prepare the rheumatoid arthritis animal model. The thus prepared mice were divided into […], i.e., a positive control group (MTX 5 mpk treated group: 10 mice), a group treated with the compound of Example 61 alone (10 mpk treated group: 9 mice), a group treated with MTX and the compound of Example 61 (each 5 mpk and 10 mpk; 9 mice), and a group treated with vehicle (a group treated with 0.05% CMC diluted in distilled water; 15 mice). […]
The severity of arthritis was determined by ascertaining the mean score of arthritis according to the following standard score in the forefoot and hindfoot twice a week from Day 0 to Day 73 after the primary immunization: 0=normal foot, 1=inflammation and swelling of one toe, 2=inflammation and swelling of more than one toe, but not all of the toes have inflammation and swelling, or weak swelling of all toes, 3=inflammation and swelling of all toes, and 4=severe inflammation and swelling or occlusion of foot.

T1 sequence (P01375 77-233 limits assumed): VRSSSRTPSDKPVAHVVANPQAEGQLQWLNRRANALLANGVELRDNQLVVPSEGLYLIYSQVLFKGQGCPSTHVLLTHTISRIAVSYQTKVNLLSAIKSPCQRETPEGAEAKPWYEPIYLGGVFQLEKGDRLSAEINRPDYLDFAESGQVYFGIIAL

In data set [1] (compound 50 μM, TNF 20 ng/ml, actinomycin D, LM cells, 24 hours), `O=C(O)c1c(-c2cc(F)ccc2F)oc2cc(Cl)ccc2c1=O` [Example 61, 2-(2,5-difluorophenyl)-3-carboxy-7-chloro-(4H)-4-benzopyranone] gave an inhibition at 50 µM of 95.7%. This compound had a half-maximal inhibitory concentration (IC50) in data set [1] (inhibition of TNF-induced LM cell death) of 1.8 µM. In addition, in data set [2], the CC50 at 24 h is greater than 50 µM. Moreover, the Kd in data set [3] amounted to 1.44 µM. Further, the binding to etanercept entry in data set [4] is on record as “did not bind to etanercept”. Besides, the “migration of NF-kB from the cytoplasm to the nucleus activated by TNF” value in data set [5] is listed as “almost completely inhibited”. The “therapeutic effect on rheumatoid arthritis (pathology score)” value in data set [6] (25, 50 and 100 mpk PO, three times a week, Week 15 to 23, vs negative control) is “remarkable therapeutic effect”. In data set [6] (50 and 100 mpk PO, adalimumab 1.2 mpk, etanercept 4.5 mpk), the “effect in comparison with adalimumab and etanercept” value was “non-inferior effect”. Besides, the “therapeutic effect on arthritis (mean arthritis score)” value in data set [7] is recorded as “therapeutic effect on arthritis was shown”.
